Here are results for 22 compounds from ChEMBL document CHEMBL3638586, “Inhibition of memapsin 1 cleavage in the treatment of diabetes” (2015).

For one experiment, the target named is T1, Beta-secretase 2 (Homo sapiens, UniProt Q9Y5Z0).
T1 sequence (Q9Y5Z0 whole entry): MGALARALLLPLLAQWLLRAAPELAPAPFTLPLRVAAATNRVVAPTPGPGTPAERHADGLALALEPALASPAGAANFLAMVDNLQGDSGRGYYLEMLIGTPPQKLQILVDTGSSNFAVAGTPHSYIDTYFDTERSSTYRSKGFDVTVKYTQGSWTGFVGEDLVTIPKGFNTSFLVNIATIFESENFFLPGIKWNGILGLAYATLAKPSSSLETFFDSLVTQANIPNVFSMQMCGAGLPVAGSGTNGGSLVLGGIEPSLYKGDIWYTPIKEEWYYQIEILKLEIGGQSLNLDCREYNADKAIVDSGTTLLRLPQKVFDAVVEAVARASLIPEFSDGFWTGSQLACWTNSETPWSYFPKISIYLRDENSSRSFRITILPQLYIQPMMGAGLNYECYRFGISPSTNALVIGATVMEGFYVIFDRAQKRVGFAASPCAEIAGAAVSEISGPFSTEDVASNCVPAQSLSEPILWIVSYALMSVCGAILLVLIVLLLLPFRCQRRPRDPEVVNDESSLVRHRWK
The experiment is described as follows: (§1) Inhibition Assay: Previously, one of the following compounds discussed below have been studied in memapsin 2 inhibition (Ghosh et al., 2008), which the others are previously unpublished. Given the closely related substrate specificity for memapsin 1 and memapsin 2, the inventors chose to screen these previously identified memapsin 2 inhibitors for lead compounds as memapsin 1 inhibitors. Recombinant memapsin 1 ectodomain was prepared as described by Turner et al. (2002) and assayed using a commercially purchased fluorescent substrate.

The target of a further experiment is Beta-secretase 1 (Homo sapiens, UniProt P56817). The experiment is described as §1.
Chain of Beta-secretase 1 (P56817 whole entry): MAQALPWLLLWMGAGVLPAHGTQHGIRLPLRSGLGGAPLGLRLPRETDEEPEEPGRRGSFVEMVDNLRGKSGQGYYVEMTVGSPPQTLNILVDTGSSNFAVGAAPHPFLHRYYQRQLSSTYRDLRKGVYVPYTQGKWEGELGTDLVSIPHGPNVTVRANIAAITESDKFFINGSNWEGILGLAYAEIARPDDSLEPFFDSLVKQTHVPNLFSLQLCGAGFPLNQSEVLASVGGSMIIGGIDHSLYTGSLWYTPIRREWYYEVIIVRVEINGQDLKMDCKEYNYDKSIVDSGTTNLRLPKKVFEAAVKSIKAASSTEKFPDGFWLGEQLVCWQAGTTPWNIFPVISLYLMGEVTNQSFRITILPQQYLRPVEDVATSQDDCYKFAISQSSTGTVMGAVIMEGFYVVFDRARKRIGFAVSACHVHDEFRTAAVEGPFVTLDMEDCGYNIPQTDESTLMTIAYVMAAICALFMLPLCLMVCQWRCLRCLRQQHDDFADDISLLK

The term Ki denotes a dissociation constant, usually derived from enzyme kinetics or from competition with a known ligand. By IC50 is commonly meant the point on the concentration scale where inhibition reaches its midpoint.

Regarding `CC(C)CC(NC(=O)[C@H](CS(C)(=O)=O)NC(=O)C1NOC2OCCC21)[C@@H](O)CC(C)C(=O)NC(C(=O)N(C)C)C(C)C` (stereo partly drawn), the Ki on Beta-secretase 2 turned out to be 53 nM.

On to `CCCC(O)C(NCC(O)C(Cc1ccccc1)NC(=O)c1cccc(C(=O)N(C)C(C)c2ccccc2)c1)C(=O)NCC(C)C` (stereo not drawn), for which the Ki was found to be 5250 nM at Beta-secretase 1 and 0.02 nM at Beta-secretase 2.

For the compound `CSC[C@H](NC(=O)C1NOC2OCCC21)C(=O)NC(CC(C)C)[C@@H](O)CC(C)C(=O)NC(C(=O)N(C)C)C(C)C` (stereo partly drawn), the Ki on Beta-secretase 2 is 46 nM.

As to `CC(C)CN1CCNC(C(O)C(Cc2ccccc2)NC(=O)c2cc(C(=O)NC(C)c3ccccc3)cc(N(C)S(C)(=O)=O)c2)C1` (stereo not drawn), at Beta-secretase 2, the Ki turned out to be 6060 nM.

For the compound `CCCC(O)N(NC[C@H](Cc1ccccc1)NC(=O)c1cc2c3c(c1)c(CC)cn3CC1(CC1)S(=O)(=O)N2C)C(=O)NC(C)C` (stereo partly drawn), the Ki at Beta-secretase 2 was determined as 30 nM.

With `CCCC(O)N(NC[C@H](Cc1ccccc1)NC(=O)c1cc2c3c(c1)c(CC)cn3CC1(CC1)S(=O)(=O)N2C)C(=O)NCC(C)C` (stereo partly drawn), the Ki on Beta-secretase 2 is 11 nM.

Turning to `CC(C)CNC(=O)C(NCC(O)C(Cc1ccccc1)NC(=O)c1cccc(C(=O)N(C)C(C)c2ccccc2)c1)C(C)O` (stereo not drawn), the Ki on Beta-secretase 1 is 5810 nM; at Beta-secretase 2, 63.1 nM.

For `CC(C)CNC(=O)C(NCC(O)C(Cc1ccccc1)NC(=O)c1cc(C(=O)NC(C)c2ccc(I)cc2)cc(N(C)S(C)(=O)=O)c1)C(C)O` (stereo not drawn), on Beta-secretase 2, the Ki stood at 89 nM.

On to `NC1=Nc2ccc(Oc3ccccc3)cc2CN1C(CCC(=O)N(CC1CCC(=O)N1)C1CCCCC1)C1CCCCC1` (stereo not drawn), for which the Ki at Beta-secretase 2 worked out at 48 nM.

Consider `Cc1ncsc1CN(C(=O)CCC(C1CCCCC1)N1Cc2cc(Oc3ccccc3)ccc2N=C1N)C1CCCCC1` (stereo not drawn), for which, on Beta-secretase 2, the Ki came out at 53 nM.

Take `CCCC(O)C(NCC(O)C(Cc1ccccc1)NC(=O)c1cccc(C(=O)N2CCCC2OC)c1)C(=O)NCC(C)C` (stereo not drawn): the Ki was 267 nM on Beta-secretase 1 and 76.6 nM at Beta-secretase 2.

As for `COc1ccc(C(C(C)O)C(Cc2ccccc2)NC(=O)c2cc(C(=O)NC(C)c3ccccc3)cc(N(C)S(C)(=O)=O)c2)cc1` (stereo not drawn), the IC50 at Beta-secretase 2 was 700 nM.

For `COc1cccc(C(NCC(O)C(Cc2ccccc2)NC(=O)c2cc(C(=O)NC(C)c3ccccc3)cc(N(C)S(C)(=O)=O)c2)C(C)O)c1` (stereo not drawn), the IC50 on Beta-secretase 2 came to 350 nM.

With `Cc1cc(C(=O)NC(Cc2ccccc2)C(O)CNC(C(=O)NCC(C)C)C(C)O)cc(C(=O)N(C)C(C)c2ccccc2)c1` (stereo not drawn), the Ki worked out at 1660 nM at Beta-secretase 1 and 1 nM at Beta-secretase 2.

As to `CCc1cn2c3c(cc(C(=O)N[C@@H](Cc4ccccc4)C(O)CNCc4cccc(C(F)(F)F)c4)cc13)N(C)S(=O)(=O)C1(CC1)C2` (stereo partly drawn), the Ki on Beta-secretase 2 worked out at 521 nM.

Take `CCCC(O)C(NCC(O)C(Cc1ccccc1)NC(=O)c1cc(C)cc(C(=O)N2CCCC2OC)c1)C(=O)NCC(C)C` (stereo not drawn): the Ki came to 6.56 nM at Beta-secretase 1 and 19.7 nM at Beta-secretase 2.

In the case of `CCCC(O)C(NCC(O)C(Cc1ccccc1)NC(=O)c1cc(C)cc(C(=O)N(C)C(C)c2ccccc2)c1)C(=O)NCC(C)C` (stereo not drawn), the Ki on Beta-secretase 1 came to 563 nM; at Beta-secretase 2, 0.0014 nM.

As to `CC(CN1Cc2cc(Oc3ccccc3)ccc2N=C1N)C(=O)NCCC(C)(C)C` (stereo not drawn), on Beta-secretase 2, the IC50 came to 500 nM.

Turning to `CC(C)CNC(=O)C(NCC(O)C(Cc1ccccc1)NC(=O)c1cc(C(=O)NC(C)c2ccccc2)cc(N(C)S(C)(=O)=O)c1)C(C)O` (stereo not drawn), on Beta-secretase 2, the Ki came out at 37 nM.

`CCc1cn2c3c(cc(C(=O)N[C@@H](Cc4ccccc4)[C@H](O)CNC(COC)c4cccc(C(F)(F)F)c4)cc13)N(C)S(=O)(=O)C1(CC1)C2` (stereo partly drawn): at Beta-secretase 2, the Ki is 199 nM.

Take `COCC(NC(=O)OCC(C1CCCCC1)N1Cc2cc(Oc3ccccc3)ccc2N=C1N)C(=O)N(C)C` (stereo not drawn): at Beta-secretase 2, the inhibitory constant (Ki) was 350 nM.

With `Cc1oncc1CN(C(=O)CCC(C1CCCCC1)N1Cc2cc(Oc3ccccc3)ccc2N=C1N)C1CCCCC1` (stereo not drawn), the Ki on Beta-secretase 2 was 70 nM.
